Data published in patent US20260325485A1, “COMPOSITIONS AND METHODS FOR TREATING PANCREATITIS” (The United States Government as represented by the …, priority 2022, published 2026).

Legend:
trypsin [1] = assay: Trypsin activity in Gnptab−/− acinar cells; type: cell-based, mouse; conditions: Gnptab−/− acinar cells, cholesterol chelator MCD
Description: FIGS. 6A-6R show mechanisms mediating increased trypsin activity in Gnptab−/− pancreas. Trypsin activity and its regulation were analyzed in pancreatic (A, C, and D) tissue, (B and P-R) acinar cells, (E-H and O) lobules, and (I-N) subcellular fractions. In B, acinar cells were incubated for 3 hours without and with 20 nM BafAl or 50 μM CatB inhibitor CA-074Me; in P-R, with the cholesterol chelator methyl-β-cyclodextrin (MCD) at the indicated concentrations. In E-H, pancreatic lobules were double stained for TAP and LC3 or LAMP2; in O, for TAP and filipin. Quantitative colocalization analysis was done as detailed in FIG. 2. Each symbol in A, B, J-N, Q, and R represents an individual mouse or cell preparation (n=3-8 per condition). Each symbol in D, G, and H corresponds to 20 to 30 cells in a different field (n=9-20 fields from 3 WT and 3 KO mice or lobule preparations). Values are mean±SEM. **P<0.01, ***P<0.001 vs. WT tissue/lobules (A, G, and H) or corresponding WT subcellular fraction (K and M). ##P<0.01 vs. no inhibitors (B) or MCD (Q and R). ††P<0.01, †††P<0.001 vs. the other two fractions (L and N). Significance was determined by 2-tailed Student's t test (A, G, and H) or 1-way ANOVA followed by Tukey's multiple comparison test (B, K-N, Q, and R). Scale bars: 10 μm.
(§1) Activities of cathepsin (Cat) B and L, caspase-3, trypsin, and lysosomal acid lipase (LAL) were measured in pancreatic tissue or cell homogenates and subcellular fractions with fluorogenic assays using substrates specific for CatB (Z-Arg-Arg-AMC), CatL (Z-Phe-Arg-AMC), caspase-3-like ([…]), trypsin (Boc-Gln-Ala-Arg-AMC), as previously described (1-4, 6, 7); and for LAL (4-methylumbelliferyl oleate), as in (17). In measurements of CatL activity, the assay buffer also contained 50 μM CA-074me, a CatB inhibitor. LAL activity was measured in the absence and presence of the LAL inhibitor lalistat (100 μM) as the difference between these values (17).

mouse acinar cells [2] = assay: Total cholesterol content of mouse acinar cells (ex vivo pancreatitis models or cholesterol chelator); type: cell-based; conditions: Gnptab−/− acinar cells
Description: FIGS. 8A-8M show derangement of cholesterol metabolism in experimental pancreatitis. Characteristics of cholesterol metabolism were measured, as detailed in FIGS. 4A-4R, in pancreas of WT mice subjected to pancreatitis induced with cerulein (CER-AP), L-arginine (Arg-AP), or CDE diet (CDE-AP) (A, B, and E-G); ex vivo pancreatitis induced in WT mouse (C and I-M) or human acinar cells (D) with 100 nM CCK (CCK-AP) or 1 mM carbachol; and isolated pancreatic mitochondria (H). (B) Cholesterol ester (CE) heatmap; each column represents an individual mouse. (F) IB analysis of the indicated proteins. (G) LAL activity was measured by a fluorogenic assay (n=6 mice per condition). (H) Cholesterol content was measured by enzymatic assay. (I-M) Filipin colocalization with indicated proteins was quantified as detailed in FIGS. 2A-2L. Each symbol in A, C-E, and H represents an individual mouse, or cell or mitochondria preparation (n=3-15 per condition). Each symbol in J, K, and M corresponds to 20-30 cells in a different field (n=10-20 fields from 3 cell preparations per condition). Values are mean±SEM. *P<0.05, **P<0.01, ***P<0.001 vs. the same parameter in control/untreated pancreas, acinar cells or isolated mitochondria. Significance was determined by 2-tailed Student's t test (B, E, H, J, K, and M) or 1-way ANOVA followed by Tukey's multiple comparison test (A, C, and D). Scale bars: 10 μm.
Parameters of cholesterol metabolism were measured in (A, B, E, F) pancreas of mice subjected to pancreatitis induced with cerulean (CER-AP), L-arginine (Arg-AP), or combination of EtOH+palmitoleic acid (EtOH+POA); and (C) ex-vivo models on mouse and human acinar cells treated for 1 h with 100 nM CCK, […] or 500 μM TLCS. In (A), each column in CE heatmap represents an individual mouse. (B, C) Total cholesterol content was measured with cholesterol assay kit (Abcam, ab65390). […] Each symbol corresponds to 20-30 cells in each of 8 high-expression (qPCR) of proteins regulating cholesterol synthesis (4 mice/group). (B-D) Each symbol represents an individual animal or cell preparation. (A-D, F) Values are mean±SE (*p<0.05, **p<0.01, ***p<0.001 vs saline or control). Signficance was determined by 2-tailed student's t test.
(§2) Ex vivo pancreatitis models were performed on mouse and human acinar cells, and human pancreas slices by incubation with supramaximal CCK (100 nM) or carbachol (1 mM), as described previously (80, 81).
(§3) Total cholesterol content was measured with Cholesterol Assay kit per manufacturer's instructions. Samples of mouse pancreas and liver, cell pellet homogenates, subcellular fractions, isolated mitochondria, and serum were diluted in the reaction buffer containing cholesterol probe and incubated at 37° C. for 1 h in the dark. To measure total cholesterol, the samples were subjected to digestion with cholesterol esterase. To measure non-esterified cholesterol, the esterase was omitted from the assay.
Fluorescence intensity (for cholesterol) and absorbance (for TAG) were measured in a Tecan microplate reader. Each measurement was in duplicate, and the values were normalized per mg total protein in the sample.

trypsin [3] = assay: Trypsin activity in WT mouse acinar cells without and with CCK; type: cell-based; conditions: MCD 10 mM, 1 hour, 100 nM CCK
Description: FIGS. 10A-10N show deranged cholesterol metabolism causes acinar cell damage, while its normalization ameliorates experimental pancreatitis. (A-D) Cholesterol content and trypsin activity were measured (per mg protein) in WT mouse acinar cells incubated for 1 hour without and with methyl-β-cyclodextrin (MCD; 10 mM) or cholesterol-loaded MCD (MCD-Chol; 200 μg/mL), in the presence or absence of 100 nM CCK. Values are expressed relative to those in cells without MCD/MCD-Chol. (E-J) WT mice received daily i.p. injections of the LXR agonist T0901317 (T09), simvastatin (Sim; 20 mg/kg each), or vehicle. On day 4, mice were subjected to CER-AP and pancreata collected for analyses (see also FIG. 20). Cholesterol content (E), trypsin activity (F), and pancreas histopathology (H&E staining; G) were measured. (H, I, L, and N) IB analysis of markers/mediators of autophagy (LC3, p62), ER stress (CHOP, GRP-78), and mitophagy (Parkin). Ub, ubiquitylated proteins. (J) Mitochondrial fragmentation was assessed by immunostaining for Tom20, as detailed in FIG. 7G. […] Pancreas histopathology (H&E staining; M) and levels of autophagy markers/mediators (N) were measured. […] Significance was determined by 2-tailed Student's t test (A-D) or 1-way ANOVA followed by Tukey's multiple comparison test (E, F, and I). […]

[4] = system: mouse pancreatic acinar cells; assay: Ex-vivo CCK-AP in mouse pancreatic acinar cells treated with simvastatin or MCD; type: cell-based; conditions: simvastatin 4 μM, 3 h or MCD 10 mM, 1 h
Description: (§4) FIGS. 26A-26D preventing cholesterol overload ameliorates ex-vivo pancreatitis. Mouse pancreatic acinar cells were incubated (A, B) with simvastatin (4 μM, 3 h) or (C, D) cholesterol chelator, methyl-β-cyclodextrin (MCD; 10 mM, 1 h) and then subjected to CCK-AP for 1 (D) or 3 h (A, B). Cholesterol content (A, C) necrosis (B), and trypsin activity (D) were measured. Each symbol represents an individual cell preparation. Values are mean±SEM*p<0/05, **p<0.01 vs control; #p<0.05 ##p<0.01; vs CCK, no inhibitor.
as §2, §1, §3

mouse acinar cells [5] = conditions: cited from earlier work
pancreas = conditions: pharmacologic autophagy enhancer; cited from earlier work
[6] = system: cerulein pancreatitis (CER-AP); assay: Drug treatment of cerulein pancreatitis (CER-AP) in WT mice; type: in vivo, mouse; conditions: WT mice treated with simvastatin or BemA
Description: FIGS. 10A-10N show deranged cholesterol metabolism causes acinar cell damage, while its normalization ameliorates experimental pancreatitis. (A-D) Cholesterol content and trypsin activity were measured (per mg protein) in WT mouse acinar cells incubated for 1 hour without and with methyl-β-cyclodextrin (MCD; 10 mM) or cholesterol-loaded MCD (MCD-Chol; 200 μg/mL), in the presence or absence of 100 nM CCK. Values are expressed relative to those in cells without MCD/MCD-Chol. (E-J) WT mice received daily i.p. injections of the LXR agonist T0901317 (T09), simvastatin (Sim; 20 mg/kg each), or vehicle. On day 4, mice were subjected to CER-AP and pancreata collected for analyses (see also FIG. 20). Cholesterol content (E), trypsin activity (F), and pancreas histopathology (H&E staining; G) were measured. (H, I, L, and N) IB analysis of markers/mediators of autophagy (LC3, p62), ER stress (CHOP, GRP-78), and mitophagy (Parkin). Ub, ubiquitylated proteins. (J) Mitochondrial fragmentation was assessed by immunostaining for Tom20, as detailed in FIG. 7G. (K and L) Mouse acinar cells were treated for 16 hours with LDL (30 μg/mL) or the combination of LDL and 10 μM U18666A. (M and N) Mice received injections of U18666A as detailed in FIG. 9B. Pancreas histopathology (H&E staining; M) and levels of autophagy markers/mediators (N) were measured. Each symbol in A-F and I represents an individual mouse or cell preparation. Values are mean±SEM from 3 to 7 mice or cell preparations per condition. ^§ P<0.05, ^§§ P<0.01 vs. control cells (without MCD/MCD-Chol). ***P<0.001 vs. saline-treated mice. ^#P<0.05, ^##P<0.01, ^###P<0.001 vs. CER-AP alone (no inhibitors). Significance was determined by 2-tailed Student's t test (A-D) or 1-way ANOVA followed by Tukey's multiple comparison test (E, F, and I). Scale bars: 10 μm.
FIGS. 20A-20C show simvastatin improves cerulein pancreatitis. Mice received daily i.p. injections of simvastatin (Sim; 20 mg/kg) or vehicle (see FIG. 10), and on day 4 were subjected to cerulein pancreatitis (CER-AP). (A) Pancreas histopathology (H&E staining; scale: 10 μm). (B) IB analysis of markers/mediators of autophagy (LC3, p62), ER stress (CHOP), and the MLN64/STARD3 protein mediating cholesterol transfer from LE/Ly to mitochondria. Each IB lane represents an individual mouse; ERK1/2 is the loading control. […] Ub, ubiquitylated proteins. (C) Pancreatitis responses. Values are mean±SEM from 7-13 mice for each condition. ***p<0.001 vs saline control. ^###p<0.001 vs CER-AP alone (no simvastatin). Significance was determined by 1-way ANOVA followed by Tukey's multiple comparisons test.
(§5) FIGS. 25A-25C show reducing cholesterol overload greatly ameliorates experimental pancreatitis. CER-AP responses were measured in (A) AclyAac or (C) WT mice treated with simvastatin or bempedoic acid (BemA). (B) Acinar cells were transfected with ACLA (or mock) siRNA and subjected to ex-vivo CCK-AP. Each symbol represents an individual mouse or cell preparation. Values are mean±SE. **p<0.01, ***p<0.001 vs saline treated control mice (or mock transfection); #p<0.05, ##p<0.01, ###p<0.001 vs CER/CCK-AP in control mice (i.e. without inhibitors) or cells.
Cerulein-induced (CER-AP) and L-arginine induced (Arg-AP) acute pancreatitis models were performed in 12-week-old C57BL/6 mice that received 7 hourly i.p. injections of 50 μg/kg cerulein or 3 hourly i.p. injections of 3.3 g/kg Arg; controls received physiologic saline injections. Mice were euthanized for analyses 7 hours after the first cerulein or 24 hours after the first Arg injection. Choline deficient, ethionine-supplemented (CDE) pancreatitis was induced in young (~5-weeks old) female mice fed either CDE or control diet. Mice were euthanized 72 hours after the diet initiation. These models have been described in detail (1-7).
12-week-old WT mice were subjected for 4 consecutive days to daily i.p. injections of 20 mg/kg simvastatin (8,9) or 20 mg/kg T0901317 (10); or 10 mg/kg U18666A for 15 days (11). […]

CER/CCK-AP = assay: Effect of simvastatin and BemA in CER/CCK-AP (mouse and ex-vivo model)
Description: as §5, §4
Cholesterol metabolism is disrupted in pancreatitis as a result of lysosomal/autophagy dysfunction. Preventing acinar cell cholesterol overload with simvastatin alleviates AP in one experimental model (CER-AP). As discussed above, lysosomal/autophagy dysfunction is associated with both experimental and human pancreatitis.^6, 7, 9, 13, 17 However, until a recent publication^13 there was very little known on cholesterol metabolism in healthy pancreas, its changes in experimental and human pancreatitis, and role in disease severity. Further, effects of statins and other cholesterol-lowering drugs in pancreas, and the underlying mechanisms, have not been explored. […] This, in turn, stimulates a compensatory increase in cholesterol synthesis, further exacerbating cholesterol overload. It was further shown^13 that inhibition of cholesterol synthesis with simvastatin reduced acinar cell cholesterol overload and the severity of pancreatitis induced with supramaximal cerulein (CER), an ortholog of the hormone cholecystokinin-8 (CCK). The findings^13 reveal a previously unrecognized pathogenic role of cholesterol dysregulation in pancreatitis and indicate normalizing cholesterol metabolism as a novel therapeutic approach for disease treatment.
In summary, the published^13 and current data (FIGS. 23-26) reveal that disruption of acinar cell cholesterol metabolism is a common feature in models of experimental pancreatitis and also prominent in human disease. The key manifestation of cholesterol dyshomeostasis in pancreatitis is acinar cell cholesterol overload. […]

muscles = conditions: prodrug activated in the liver; cited from earlier work

For methyl-β-cyclodextrin [MCD], the “Trypsin activity, KO cells, MCD” value (trypsin [1]) was “greatly decreased”, the “Resistance of Gnptab−/− acinar cells to MCD” value (mouse acinar cells [2]) was “highly resistant” and the “MCD concentration at which cholesterol-reducing effect is evident” value (mouse acinar cells [2]; only at this concentration) was 50 mM. For the same molecule, the CCK-induced trypsinogen activation (trypsin [3]) was “reduced”, the “cholesterol overload in ex-vivo CCK-AP” value [4] was “Reducing” and the “extent of necrosis in ex-vivo CCK-AP” value [4] was “greatly decreased”. The “trypsinogen activation in ex-vivo CCK-AP” value [4] was “greatly decreased” and the “usual cholesterol-reducing MCD concentration” value (mouse acinar cells [5]) was 1 to 5 mM.
For `OC[C@H]1O[C@H](O[C@H]2O[C@H](CO)[C@@H](O)[C@H](O)[C@H]2O)[C@H](O)[C@@H](O)[C@@H]1O` [trehalose], the “pancreas injury in AP models” value (pancreas) is given as “largely prevented”.
In the case of `CC(C)(CCCCCC(O)CCCCCC(C)(C)C(=O)O)C(=O)O` [BemA, Bempedoic acid], the “cholesterol overload in CER-AP (FIG. 25C)” value [6] is reported as “decreased”, the “inflammation in CER-AP (FIG. 25C)” value [6] is reported as “ameliorated” and the “necrosis in CER-AP (FIG. 25C)” value [6] is reported as “ameliorated”. For the same molecule, the “trypsin activity in CER-AP (FIG. 25C)” value [6] was “ameliorated”, the “cholesterol overload, CER/CCK-AP” value (CER/CCK-AP) was “prevented” and the “disease severity, CER/CCK-AP” value (CER/CCK-AP) was “reduced”. For the same molecule, the myotoxicity (muscles) was “minimal”.
